Data published in patent US8088806B2 (Achillion Pharmaceuticals, Inc., priority 2005, dated 2012).

Test system: HCV replicon
Assay: Replicon based assay of HCV replication inhibition (NPT ELISA)
Type: cell-based, Hepatitis C virus
Settings: Hepatitis C virus, Huh-7, 72 h, Table III; Huh-7 HCV replicon-containing cells, three days; read-out: Activity
Summary of the method: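 Huh-7 cells carrying a bicistronic HCV replicon (neo, EMCV-IRES-driven NS3–NS5B) treated overnight after seeding with usually 6 concentrations, 10 to 0.03 micromolar, for three days at 37° C without G418. Replication read as NPT level by captured ELISA; matched-DMSO wells and interferon alpha as controls.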

SMILES	EC50
CCCC(CCC)Oc1ccc(Nc2nc(-c3cccnc3)cs2)cc1C(F)(F)F [compound 680, N-(3-(trifluoromethyl)-4-(heptan-4-yloxy)phenyl)-4-(pyridin-3-yl)thiazol-2-amine]	< 1000 nM
CCCCCCCCOc1ccc(Nc2nc(-c3ncccn3)cs2)cc1C(F)(F)F [compound 681, N-(3-(trifluoromethyl)-4-(octyloxy)phenyl)-4-(pyrimidin-2-yl)thiazol-2-amine]	< 1000 nM
FC(F)(F)c1cc(Nc2nc(-c3cccnc3)cs2)ccc1OCCCc1ccccc1 [compound 682, N-(4-(3-phenylpropoxy)-3-(trifluoromethyl)phenyl)-4-(pyridin-3-yl)thiazol-2-amine]	< 1000 nM
CCCCCCCCOc1cccc(Nc2nc(-c3cccnc3)cs2)c1 [compound 683, N-(3-(octyloxy)phenyl)-4-(pyridin-3-yl)thiazol-2-amine]	< 1000 nM
CCCCCCCCN(C)c1ncc(Nc2nc(-c3cccnc3)cs2)cc1C(F)(F)F [compound 684, 3-(trifluoromethyl)-N^2-methyl-N^2-octyl-N^5-(4-(pyridin-3-yl)thiazol-2-yl)pyridine-2,5-diamine]	> 10000 nM
CCCCCCCCOc1ccc(Nc2nc(-c3ccc(N)nc3)cs2)cc1 [compound 685, 5-(2-(4-(octyloxy)phenylamino)thiazol-4-yl)pyridin-2-amine]	< 1000 nM
CCCCCCCCOc1ccc(Nc2nc(-c3cnc(NC(C)=O)c(C)c3)cs2)cc1C(F)(F)F [compound 686, N-(5-(2-(3-(trifluoromethyl)-4-(octyloxy)phenylamino)thiazol-4-yl)-3-methylpyridin-2-yl)acetamide]	< 1000 nM
CCCCCCCCOc1ccc(Nc2nc(-c3cnc(N)c(C)c3)cs2)cc1C(F)(F)F [compound 687, 5-(2-(3-(trifluoromethyl)-4-(octyloxy)phenylamino)thiazol-4-yl)-3-methylpyridin-2-amine]	< 1000 nM
CCCCCCCCOc1ccc(Nc2nc(-c3cnc(NC(C)=O)c(C)c3)cs2)cc1 [compound 688, N-(5-(2-(4-(octyloxy)phenylamino)thiazol-4-yl)-3-methylpyridin-2-yl)acetamide]	1000 to 10000 nM
CCCCCCCCN(C)c1ccc(Nc2nc(-c3cnc(OC)nc3)cs2)cc1C(F)(F)F [compound 689, 2-(trifluoromethyl)-N^4-(4-(2-methoxypyrimidin-5-yl)thiazol-2-yl)-N^1-methyl-N-octylbenzene-1,4-diamine]	< 1000 nM
CC(C)=CCC/C(C)=C/COc1ccc(Nc2nc(-c3cccnc3)cs2)cc1C(F)(F)F [compound 690, N-(4-((E)-3,7-dimethylocta-2,6-dienyloxy)-3-(trifluoromethyl)phenyl)-4-(pyridin-3-yl)thiazol-2-amine]	< 1000 nM
CC(C)CCCC(C)CCOc1ccc(Nc2nc(-c3cccnc3)cs2)cc1C(F)(F)F (stereo not shown) [compound 691, N-(4-(3,7-dimethyloctyloxy)-3-(trifluoromethyl)phenyl)-4-(pyridin-3-yl)thiazol-2-amine]	< 1000 nM
CCCCCCCCSc1ccc(Nc2nc(-c3cccnc3)cs2)cc1C(F)(F)F [compound 692, N-(3-(trifluoromethyl)-4-(octylthio)phenyl)-4-(pyridin-3-yl)thiazol-2-amine]	< 1000 nM
FC(F)(F)c1cc(Nc2nc(-c3cccnc3)cs2)ccc1OCCCN1CCOCC1 [compound 693, N-(4-(3-morpholinopropoxy)-3-(trifluoromethyl)phenyl)-4-(pyridin-3-yl)thiazol-2-amine]	1000 to 10000 nM
CN1CCN(CCCOc2ccc(Nc3nc(-c4cccnc4)cs3)cc2C(F)(F)F)CC1 [compound 694, N-(4-(3-(4-methylpiperazin-1-yl)propoxy)-3-(trifluoromethyl)phenyl)-4-(pyridin-3-yl)thiazol-2-amine]	1000 to 10000 nM
CN(C)CCCOc1ccc(Nc2nc(-c3cccnc3)cs2)cc1C(F)(F)F [compound 695, N-(4-(3-(dimethylamino)propoxy)-3-(trifluoromethyl)phenyl)-4-(pyridin-3-yl)thiazol-2-amine]	1000 to 10000 nM
FC(F)(F)c1cc(Nc2nc(-c3cccnc3)cs2)ccc1OCCCN1CCCC1 [compound 696, N-(4-(3-(pyrrolidin-1-yl)propoxy)-3-(trifluoromethyl)phenyl)-4-(pyridin-3-yl)thiazol-2-amine]	1000 to 10000 nM
CCCCCCCCOC(=O)c1ccc(Nc2nc(-c3cccnc3)cs2)cc1C(F)(F)F [compound 697, octyl 4-(4-(pyridin-3-yl)thiazol-2-ylamino)-2-(trifluoromethyl)benzoate]	< 1000 nM
FC(F)(F)c1cc(Nc2nc(-c3cccnc3)cs2)ccc1N1CCC2CCCCC2C1 (stereo not shown) [compound 698, N-(3-(trifluoromethyl)-4-(octahydroisoquinolin-2(1H)-yl)phenyl)-4-(pyridin-3-yl)thiazol-2-amine]	< 1000 nM
O=C(c1ccc(Nc2nc(-c3ccc(F)cc3)cs2)cc1C(F)(F)F)N1CCC2CCCCC2C1 (stereo not shown) [compound 699, (4-(4-(4-fluorophenyl)thiazol-2-ylamino)-2-(trifluoromethyl)phenyl)(octahy-droisoquinolin-2(1H)-yl)methanone]	> 10000 nM

SMILES	EC50
CCCCCCCCOC(=O)c1ccc(Nc2nc(-c3ccc(F)cc3)cs2)cc1C(F)(F)F [compound 700, octyl 4-(4-(4-fluorophenyl)thiazol-2-ylamino)-2-(trifluoromethyl)benzoate]	< 1000 nM
CCCCCCCCOc1ccc(Nc2nc(-c3ccc4ncccc4n3)cs2)cc1C(F)(F)F [compound 701, 4-(6-deuterated-1,5-naphthyndin-2-yl)-N-(4-(octyloxy)-3-(trifluoromethyl)phenyl)thiazol-2-amine]	< 1000 nM
CCCCCCCCOc1ccc(Nc2nc(-c3cncnc3-c3ccccc3)cs2)cc1C(F)(F)F [compound 702, N-(3-(trifluoromethyl)-4-(octyloxy)phenyl)-4-(4-phenylpyrimidin-5-yl)thiazol-2-amine]	< 1000 nM
CCCCCCCCOc1ccc(Nc2nc(-c3ccc(C#N)o3)cs2)cc1C(F)(F)F [compound 703, 5-(2-(3-(trifluoromethyl)-4-(octyloxy)phenylamino)thiazol-4-yl)furan-2-carbonitrile]	< 1000 nM
CCCCCCCCOc1ccc(Nc2nc(-c3ccc4oc(CO)cc4c3)cs2)cc1C(F)(F)F [compound 704, (5-(2-(3-(trifluoromethyl)-4-(octyloxy)phenylamino)thiazol-4-yl)benzofuran-2-yl)methanol]	< 1000 nM
CCCCCCCCOc1ccc(Nc2nc(-c3cccc(OC)n3)cs2)cc1C(F)(F)F [compound 705, N-(3-(trifluoromethyl)-4-(octyloxy)phenyl)-4-(6-methoxypyridin-2-yl)thiazol-2-amine]	< 1000 nM
CCCCCCCCOc1ccc(Nc2nc(-c3ccc4c(c3)OCO4)cs2)cc1C(F)(F)F [compound 706, 4-(benzo[d][1,3]dioxol-5-yl)-N-(3-(trifluoromethyl)-4-(octyloxy)phenyl)thiazol-2-amine]	< 1000 nM
CCCCCCCCOc1ccc(Nc2nc(-c3ccc4cc(OC)ccc4c3)cs2)cc1C(F)(F)F [compound 707, N-(3-(trifluoromethyl)-4-(octyloxy)phenyl)-4-(2-methoxynaphthalen-6-yl)thiazol-2-amine]	< 1000 nM
CCCCCCCCOc1ccc(Nc2nc(-c3cccc4cccnc34)cs2)cc1C(F)(F)F [compound 708, N-(3-(trifluoromethyl)-4-(octyloxy)phenyl)-4-(quinolin-8-yl)thiazol-2-amine]	< 1000 nM
CCCCCCCCOc1ccc(Nc2nc(-c3ccc(C(F)(F)F)cn3)cs2)cc1C(F)(F)F [compound 709, N-(3-(trifluoromethyl)-4-(octyloxy)phenyl)-4-(5-(trifluoromethyl)pyridin-2-yl)thiazol-2-amine]	< 1000 nM
CCCCCCCCOc1ccc(Nc2nc(-c3ncccc3O)cs2)cc1C(F)(F)F [compound 710, 2-(2-(3-(trifluoromethyl)-4-(octyloxy)phenylamino)thiazol-4-yl)pyridin-3-ol]	< 1000 nM
CCCCCCCCOc1ccc(Nc2nc(-c3cccc(S(N)(=O)=O)c3)cs2)cc1C(F)(F)F [compound 711]	< 1000 nM
CCCCCCCCOc1ccc(Nc2nc(-c3ccc(S(N)(=O)=O)cc3)cs2)cc1C(F)(F)F [compound 712]	< 1000 nM
CCCCCCCCOc1ccc(Nc2nc(-c3cnc(OC)nc3OC)cs2)cc1C(F)(F)F [compound 713, N-(3-(trifluoromethyl)-4-(octyloxy)phenyl)-4-(2,4-dimethoxypyrimidin-5-yl)thiazol-2-amine]	< 1000 nM
CCCCCCCCOc1ccc(Nc2nc(-c3ccsc3)cs2)cc1C(F)(F)F [compound 714, N-(3-(trifluoromethyl)-4-(octyloxy)phenyl)-4-(thiophen-3-yl)thiazol-2-amine]	< 1000 nM
CCCCCCCCOc1ccc(Nc2nc(-c3cccc(C(F)(F)F)c3)cs2)cc1C(F)(F)F [compound 715, N-(3-(trifluoromethyl)-4-(octyloxy)phenyl)-4-(3-(tnfluoromethyl)phenyl)thiazol-2-amine]	< 1000 nM
CCCCCCCc1nc2cc(Nc3nc(-c4cccnc4)cs3)ccc2o1 [compound 716, 2-heptyl-N-(4-(pyridin-3-yl)thiazol-2-yl)benzo[d]oxazol-5-amine]	< 1000 nM
CCCCCCCc1nc2cc(Nc3nc(-c4cnc(OC)nc4)cs3)ccc2o1 [compound 717, 2-heptyl-N-(4-(2-methoxypyrimidin-5-yl)thiazol-2-yl)benzo[d]oxazol-5-amine]	< 1000 nM
O=C1OCc2cc(-c3csc(Nc4ccc(OCC5CCCCC5)c(F)c4)n3)ccc21 [compound 718, 5-(2-(4-(cyclohexylmethoxy)-3-fluorophenylamino)thiazol-4-yl)isobenzofuran-1(3H)-one]	1000 to 10000 nM
Fc1cc(Nc2nc(-c3ccc(-n4ccnc4)cc3)cs2)ccc1OCC1CCCCC1 [compound 719, 4-(4-(1H-imidazol-1-yl)phenyl)-N-(4-(cyclohexylmethoxy)-3-fluorophenyl)thiazol-2-amine]	< 1000 nM
